Measured values reported in US9695155B2, “Herbicidal substituted pyrimidinyloxy benzene compounds” (E. I. DU PONT DE NEMOURS AND COMPANY, priority 2013, dated 2017).

Experiments:
Experiment in all cases: Test C preemergence
giant foxtail = format: in vivo, Setaria faberii; details: for Foxtail, Giant plant response rating: preemergence; for Plant response rating, Foxtail, Giant: Preemergence, scale 0 to 100, 0 no effect, 100 complete control
Procedure, shortened: (§1)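 Seeds are planted in blended loam soil and sand and treated preemergence, while seedlings in a peat moss/vermiculite medium receive postemergence sprays at 2 to 18 cm height. All plants stay in the greenhouse for 13 to 15 days before visual comparison with controls on a 0–100 scale.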

velvetleaf = format: in vivo, Abutilon theophrasti; details: for Velvetleaf plant response rating: preemergence; for Plant response rating, Velvetleaf: Preemergence, scale 0 to 100, 0 no effect, 100 complete control
Procedure, shortened: as §1

morningglory = format: in vivo, Ipomoea coccinea; details: for Morningglory plant response rating: preemergence; for Plant response rating, Morningglory: Preemergence, scale 0 to 100, 0 no effect, 100 complete control
Procedure, shortened: as §1

Italian ryegrass = format: in vivo, Lolium multiflorum; details: for Ryegrass, Italian plant response rating: preemergence; for Plant response rating, Ryegrass, Italian: Preemergence, scale 0 to 100, 0 no effect, 100 complete control
Procedure, shortened: as §1

large (Lg) crabgrass = format: in vivo, Digitaria sanguinalis; details: for Crabgrass, Large plant response rating: preemergence; for Plant response rating, Crabgrass, Large: Preemergence, scale 0 to 100, 0 no effect, 100 complete control
Procedure, shortened: as §1

oilseed rape = format: in vivo, Brassica napus; details: for Oilseed Rape plant response rating: preemergence; for Plant response rating, Oilseed Rape: Preemergence, scale 0 to 100, 0 no effect, 100 complete control
Procedure, shortened: as §1

blackgrass = format: in vivo, Alopecurus myosuroides; details: for Blackgrass plant response rating: preemergence; for Plant response rating, Blackgrass: Preemergence, scale 0 to 100, 0 no effect, 100 complete control
Procedure, shortened: as §1

yellow nutsedge = format: in vivo, Cyperus esculentus; details: for Nutsedge, Yellow plant response rating: preemergence; for Plant response rating, Nutsedge, Yellow: Preemergence, scale 0 to 100, 0 no effect, 100 complete control
Procedure, shortened: as §1

pigweed = format: in vivo, Amaranthus retroflexus; details: for Pigweed plant response rating: preemergence; for Plant response rating, Pigweed: Preemergence, scale 0 to 100, 0 no effect, 100 complete control
Procedure, shortened: as §1

barnyardgrass = format: in vivo, Echinochloa crus-galli; details: for Barnyardgrass plant response rating: preemergence; for Plant response rating, Barnyardgrass: Preemergence, scale 0 to 100, 0 no effect, 100 complete control
Procedure, shortened: as §1

soybean = format: in vivo, Glycine max; details: for Soybean plant response rating: preemergence; for Plant response rating, Soybean: Preemergence, scale 0 to 100, 0 no effect, 100 complete control
Procedure, shortened: as §1

lambsquarters = format: in vivo, Chenopodium album; details: for Lambsquarters plant response rating: preemergence; for Plant response rating, Lambsquarters: Preemergence, scale 0 to 100, 0 no effect, 100 complete control
Procedure, shortened: as §1

corn = format: in vivo, Zea mays; details: for Corn plant response rating: preemergence; for Plant response rating, Corn: Preemergence, scale 0 to 100, 0 no effect, 100 complete control
Procedure, shortened: as §1

ragweed = format: in vivo, Ambrosia elatior; details: for Ragweed plant response rating: preemergence; for Plant response rating, Ragweed: Preemergence, scale 0 to 100, 0 no effect, 100 complete control
Procedure, shortened: as §1

[1] = 16 g ai/ha, scale 0 to 100 (0 no effect, 100 complete control)
[2] = 125 g ai/ha, scale 0 (no effect) to 100 (complete control)
[3] = 62 g ai/ha, scale 0 (no effect) to 100 (complete control)

Cc1cnc(Oc2cccc(C#N)c2-n2cc(C(F)(F)F)cn2)nc1 [Compound 180]
35: Morningglory plant response rating (morningglory; [1])
5: Ryegrass, Italian plant response rating (Italian ryegrass; [1]) | Nutsedge, Yellow plant response rating (yellow nutsedge; [1]) | Corn plant response rating (corn; [1])
98: Soybean plant response rating (soybean; [2]) | Plant response rating, Soybean (soybean; 62 g ai/ha) | Ragweed plant response rating (ragweed; [2])
75: Velvetleaf plant response rating (velvetleaf; [1])
80: Ryegrass, Italian plant response rating (Italian ryegrass; [2]) | Plant response rating, Ragweed (ragweed; 62 g ai/ha)
90: Foxtail, Giant plant response rating (giant foxtail; [1]) | Blackgrass plant response rating (blackgrass; [2]) | Plant response rating, Blackgrass (blackgrass; 62 g ai/ha) | Soybean plant response rating (soybean; [1])
50: Plant response rating, Ryegrass, Italian (Italian ryegrass; 62 g ai/ha)
60: Barnyardgrass plant response rating (barnyardgrass; [1])
100: Foxtail, Giant plant response rating (giant foxtail; [2]) | Plant response rating, Foxtail, Giant (giant foxtail; 62 g ai/ha) | Velvetleaf plant response rating (velvetleaf; [2]) | Plant response rating, Velvetleaf (velvetleaf; 62 g ai/ha) | Morningglory plant response rating (morningglory; [2]) | Plant response rating, Morningglory (morningglory; 62 g ai/ha) | Crabgrass, Large plant response rating (large (Lg) crabgrass; [1]) | Crabgrass, Large plant response rating (large (Lg) crabgrass; [2]) | Plant response rating, Crabgrass, Large (large (Lg) crabgrass; 62 g ai/ha) | Oilseed Rape plant response rating (oilseed rape; [2]) | Plant response rating, Oilseed Rape (oilseed rape; 62 g ai/ha) | Pigweed plant response rating (pigweed; [2]) | Plant response rating, Pigweed (pigweed; 62 g ai/ha) | Barnyardgrass plant response rating (barnyardgrass; [2]) | Plant response rating, Barnyardgrass (barnyardgrass; 62 g ai/ha) | Lambsquarters plant response rating (lambsquarters; [2]) | Plant response rating, Lambsquarters (lambsquarters; 62 g ai/ha)
20: Blackgrass plant response rating (blackgrass; [1]) | Ragweed plant response rating (ragweed; [1])
55: Oilseed Rape plant response rating (oilseed rape; [1])
65: Plant response rating, Nutsedge, Yellow (yellow nutsedge; 62 g ai/ha) | Corn plant response rating (corn; [2])
30: Plant response rating, Corn (corn; 62 g ai/ha)
85: Nutsedge, Yellow plant response rating (yellow nutsedge; [2]) | Pigweed plant response rating (pigweed; [1]) | Lambsquarters plant response rating (lambsquarters; [1])

N#Cc1cccc(Oc2ncc(Cl)cn2)c1-n1cc(OC(F)F)cn1 [Compound 97]
45: Corn plant response rating (corn; [3])
85: Ryegrass, Italian plant response rating (Italian ryegrass; [3]) | Oilseed Rape plant response rating (oilseed rape; [1]) | Plant response rating, Oilseed Rape (oilseed rape; 31 g ai/ha) | Ragweed plant response rating (ragweed; [3])
20: Plant response rating, Nutsedge, Yellow (yellow nutsedge; 31 g ai/ha)
5: Plant response rating, Corn (corn; 31 g ai/ha)
60: Foxtail, Giant plant response rating (giant foxtail; [1]) | Plant response rating, Ryegrass, Italian (Italian ryegrass; 31 g ai/ha) | Nutsedge, Yellow plant response rating (yellow nutsedge; [3])
80: Corn plant response rating (corn; [2])
0: Ryegrass, Italian plant response rating (Italian ryegrass; [1]) | Blackgrass plant response rating (blackgrass; [1]) | Corn plant response rating (corn; [1])
100: Foxtail, Giant plant response rating (giant foxtail; [3]) | Foxtail, Giant plant response rating (giant foxtail; [2]) | Plant response rating, Foxtail, Giant (giant foxtail; 31 g ai/ha) | Velvetleaf plant response rating (velvetleaf; [3]) | Velvetleaf plant response rating (velvetleaf; [2]) | Morningglory plant response rating (morningglory; [3]) | Morningglory plant response rating (morningglory; [2]) | Crabgrass, Large plant response rating (large (Lg) crabgrass; [3]) | Crabgrass, Large plant response rating (large (Lg) crabgrass; [2]) | Plant response rating, Crabgrass, Large (large (Lg) crabgrass; 31 g ai/ha) | Pigweed plant response rating (pigweed; [1]) | Pigweed plant response rating (pigweed; [3]) | Pigweed plant response rating (pigweed; [2]) | Plant response rating, Pigweed (pigweed; 31 g ai/ha) | Barnyardgrass plant response rating (barnyardgrass; [3]) | Barnyardgrass plant response rating (barnyardgrass; [2]) | Lambsquarters plant response rating (lambsquarters; [3]) | Ragweed plant response rating (ragweed; [2])
90: Ryegrass, Italian plant response rating (Italian ryegrass; [2]) | Oilseed Rape plant response rating (oilseed rape; [2]) | Blackgrass plant response rating (blackgrass; [3]) | Blackgrass plant response rating (blackgrass; [2]) | Nutsedge, Yellow plant response rating (yellow nutsedge; [2]) | Plant response rating, Soybean (soybean; 31 g ai/ha)
40: Velvetleaf plant response rating (velvetleaf; [1]) | Morningglory plant response rating (morningglory; [1])
70: Plant response rating, Blackgrass (blackgrass; 31 g ai/ha)
10: Nutsedge, Yellow plant response rating (yellow nutsedge; [1])
98: Plant response rating, Morningglory (morningglory; 31 g ai/ha) | Crabgrass, Large plant response rating (large (Lg) crabgrass; [1]) | Oilseed Rape plant response rating (oilseed rape; [3]) | Soybean plant response rating (soybean; [2]) | Lambsquarters plant response rating (lambsquarters; [2]) | Plant response rating, Lambsquarters (lambsquarters; 31 g ai/ha)
35: Barnyardgrass plant response rating (barnyardgrass; [1]) | Ragweed plant response rating (ragweed; [1]) | Plant response rating, Ragweed (ragweed; 31 g ai/ha)
50: Soybean plant response rating (soybean; [1])
95: Plant response rating, Velvetleaf (velvetleaf; 31 g ai/ha) | Plant response rating, Barnyardgrass (barnyardgrass; 31 g ai/ha) | Soybean plant response rating (soybean; [3]) | Lambsquarters plant response rating (lambsquarters; [1])
